Measurements reported in patent US12351606B2, “Compositions and related methods for modulating transcriptional activation by incorporating gag motifs upstream of core promoter elements” (UNIVERSITY OF VIRGINIA PATENT FOUNDATION, priority 2007, dated 2025).

What was measured:
BY-2 cells = assay: GUS reporter activity of tetramer promoter constructs in transformed BY-2 cells with or without MeJA; format: cell-based, N. tabacum; conditions: tetramer upstream of minimal CaMV 35S -46 promoter
Procedure: Promoter constructs were produced by annealing phosphorylated upper- and lower-strand oligonucleotides to create various elements containing a SpeI restriction site at the 5′ end and an XbaI restriction site at the 3′ end. These were introduced into MS23-β-glucuronidase (“GUS”) between the SpeI and XbaI sites.
Ten colonies of transformed Agrobacteria (A. tumefaciens) containing the promoter construct were picked from a fresh plate and inoculated into 10 ml YEB, containing 50 mg/l rifampicin and 50 mg/l kanamycin, in a 50 ml flask. Cell cultures were incubated overnight at 28° C. with shaking, an overnight culture (1 ml) was taken. Cultures were diluted with YEB plus antibiotics so that the OD600 was approximately 0.3. Agrobacteria were grown at 28° C. with shaking until the OD600 was about 0.6. Cells were pelleted by centrifugation. Supernatants were removed and agrobacteria were resuspended in 0.5 ml MS. Approximately 3 ml of wild type BY-2 cells were introduced into Petri dishes. Approximately 100 μl of undiluted Agrobacteria or 1:10 or 1:100 diluted agrobacteria were mixed with the BY-2 cells to infect them. After 2 days, the BY-2 cells were washed with 30 ml MS medium and left for 30 min before the supernatant was removed. Approximately 2 ml aliquots of the transformed BY-2 cells were deposited onto MS plates containing vitamins, 50 mg/l kanamycin, and 500 mg/l cefotaxin. Transformed calli were visible after 3-5 weeks.
Single transformed calli were picked from selection plates and put on fresh MS+agar plates containing vitamins, 50 mg/l kanamycin, and 500 mg/l cefotaxin. Additionally, small amounts of calli were deposited into micro-wells (Corning 6 well culture cluster) with 6 ml MS medium containing vitamins, kanamycin, and cefotaxin. Samples in the micro-wells were grown at 28° C. for 4 days with shaking. Approximately 1 ml cells from the micro-wells were subcultured to new micro-wells with 5 ml fresh MS medium with vitamins, 50 mg/l kanamycin, and 500 mg/l cefotaxin. BY-2 cells were grown at 28° C. for 3 days with shaking. Then ten independent lines were chosen and 0.4 ml cells from each of the liquid cultures were subcultured to a 250 ml Erlenmeyer flask with 45 ml MS medium, vitamins, 50 mg/l kanamycin, and 500 mg/l cefotaxin. Cells were grown at 28° C. for 2 days with shaking. Then 10 ml cells from each flask were introduced into new 250 ml Erlenmeyer flasks with 40 ml MS medium containing vitamins without hormones (−2.4D) and antibiotics. The BY-2 cells were grown at 28° C. for 1 day with shaking. After 1 day BY-2 cells were treated with different amounts of methyl jasmonate (MeJA).
(§1) Histochemical staining for GUS activity and GUS activity determination was performed as described by Jefferson (1987).
An improved method for the analysis of promoter activity in BY-2 cells was developed. Transformed BY-2 calli were grown on selection plates and subsequently grown as liquid cultures in MS medium. For each individual construct ten independent lines were chosen. Approximately 0.5 ml cells from each of the liquid cultures were subcultured together in MS medium that contain vitamins, kanamycin, and cefotaxin. After 2 days, the cells were diluted in fresh MS medium containing vitamins without hormones (−2.4D) to reduce any stress response induced by cell density, and to deplete the medium of auxin. It has been shown previously that high auxin levels in the medium decreased the extent of MeJA-induced NtPMT:GUS expression (Xu and Timko, 2004). After 1 day BY-2 cells were treated with 100 μM MeJA. After 48 hours cell samples were taken, and were used to determine the GUS activity. For statistical analysis, each experiment was repeated four times and to avoid day to day variation in the GUS activities, and the data were normalized. These cell culture conditions ensured both a rapid and uniform response to MeJA.

tobacco plants = assay: Histochemical GUS staining of transgenic tobacco plants after wounding or MeJA; format: in vivo, N. tabacum; conditions: tetramer constructs, GUS staining after 72 hours
Procedure: as §1
Ten colonies of the transformed Agrobacteria containing a promoter construct of interest were picked from a fresh plate and inoculated into 10 ml YEB, containing 50 mg/l rifampicin, and 50 mg/l kanamycin, in a 50 ml flask. Cell cultures were incubated overnight at 28° C. with shaking. Approximately 1 ml of overnight culture was taken. Cultures were diluted with 50 ml YEB plus antibiotics so that the OD600 was approximately 0.3. Agrobacteria were grown at 28° C. with shaking until the OD600 was approximately 0.6. The cells were then pelleted by centrifugation. Supernatants were removed and Agrobacteria were resuspended in 40 ml fresh YEB by pipetting with a 1 ml tip. Wild type tobacco leaves were cut into small pieces under sterile conditions and put in a 50 ml beaker. Agrobacteria solution was poured onto the tobacco leaves and the mixture was swirled together and left for 5 min for the Agrobacteria to infect the leaves. Infected leaves were put on MS plates with filter paper (to limit Agrobacteria grow). […] Plates were left for 2 days in the dark. After 2 days the tobacco pieces were transferred onto MS plates containing 1 mg/l 6 BA, 500 mg/l cefotaxin and 100 mg/l kanamycin. Samples were left in the light at 28° C. […]

Row | Molecule | promoter activity / promoter strength (BY-2 cells) | response of GUS expression to MeJA treatment (BY-2 cells; 100 μM MeJA, 48 hours) | MeJA inducibility of GUS expression (relative fold inducibility) (BY-2 cells; 100 μM MeJA, 48 hours) | MeJA-inducible expression in roots (tobacco plants; 25 μM MeJA) | wound-inducible expression in roots (tobacco plants; wounding of roots or leaves)
1 | AT-rich element: SEQ ID NO:3; tetramer in front of minimal CaMV 35S -46 promoter (DNA TAATGAATTTTTAACTATTATATTATAT; expressed or natural sequence; listed as Nicotiana tabacum) | only low level promoter activity | characteristic reduction in promoter activity after MeJA addition | – | – | –
2 | G Box-like element: SEQ ID NO:2 (GCACGTTG); tetramer in front of minimal CaMV 35S -46 promoter (expressed or natural sequence; listed as Nicotiana tabacum) | Low promoter activity | characteristic reduction after MeJA exposure | – | – | –
3 | GCC-like box: SEQ ID NO:4; tetramer in front of minimal CaMV 35S -46 promoter (DNA TGCGCCCTCCACTCCTCGGTGTCCA; expressed or natural sequence; listed as Nicotiana tabacum) | only low level promoter activity | characteristic reduction in every line tested after MeJA addition | – | – | –
4 | GAG motif: SEQ ID NO:1 regulatory region of NtPMT1a promoter: G-box like, AT-rich and GCC-like box elements; tested as tetramer before CaMV 35S -46::GUS (nucleic acid, listed as Nicotiana tabacum, expressed or natural sequence, tested as tetramer before CaMV 35S -46::GUS) DNA: CTAACCCTGCACGTTGTAATGAATTTTTAACTATTATATTATATCGAGTTGCGCCCTCCACTCCTCGGTGTCCA | much stronger than the G Box-GCC element | – | approximately 35 fold | showed inducibility by MeJA | can direct wound-inducible expression
